From the supplement of paper PMC10307832

Assays:
Experiment in all cases: relative viability (nuclei count vs DMSO), 5 days (fraction); higher = more cells survive
ABC-1 = test system: ABC-1
Outline: (§1)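 Cells from lung cancer lines were seeded into 1536-well plates and, one day later, dosed by pin tool. Treatments were either a single drug or a fixed dose of an anchor drug with five library-drug doses (not always all listed) in √10 steps. After 5 days, nuclei were stained in a one-step fixation (final 0.05% Triton X-100, 1% formaldehyde, 1 ug/ml Hoechst) and counted on 4× images, and relative viability is the treated-to-vehicle nuclei ratio, as the median of duplicate plates.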

CAL-12T = test system: CAL-12T
Outline: as §1

COR-L 105 = test system: COR-L 105
Outline: as §1

ChaGo-K-1 = test system: ChaGo-K-1
Outline: as §1

EMC-BAC-2 = test system: EMC-BAC-2
Outline: as §1

EPLC-272H = test system: EPLC-272H
Outline: as §1

HCC-15 = test system: HCC-15
Outline: as §1

HOP-62 = test system: HOP-62
Outline: as §1

LXF-289 = test system: LXF-289
Outline: as §1

NCI-H1666 = test system: NCI-H1666
Outline: as §1

NCI-H1755 = test system: NCI-H1755
Outline: as §1

NCI-H1915 = test system: NCI-H1915
Outline: as §1

NCI-H1975 = test system: NCI-H1975
Outline: as §1

NCI-H1993 = test system: NCI-H1993
Outline: as §1

NCI-H2023 = test system: NCI-H2023
Outline: as §1

NCI-H2085 = test system: NCI-H2085
Outline: as §1

NCI-H2126 = test system: NCI-H2126
Outline: as §1

NCI-H3122 = test system: NCI-H3122
Outline: as §1

NCI-H322M = test system: NCI-H322M
Outline: as §1

NCI-H358 = test system: NCI-H358
Outline: as §1

NCI-H441 = test system: NCI-H441
Outline: as §1

UMC-11 = test system: UMC-11
Outline: as §1

C=C1C(=O)O[C@@H](CCCCCCCC)[C@@H]1C(=O)O [C-75] + CCNC(=O)c1noc(-c2cc(C(C)C)c(O)cc2O)c1-c1ccc(CN2CCOCC2)cc1 [Luminespib] (partner 0.01 µM)
relative viability (ABC-1; first compound 0.253 µM): 0.389
relative viability (ABC-1; first compound 0.8 µM): 0.51
relative viability (ABC-1; first compound 2.53 µM): 0.364
relative viability (ABC-1; first compound 8 µM): 0.378
relative viability (CAL-12T; first compound 0.08 µM): 0.898
relative viability (CAL-12T; first compound 0.253 µM): 0.365
relative viability (CAL-12T; first compound 0.8 µM): 0.178
relative viability (CAL-12T; first compound 2.53 µM): 0.405
relative viability (CAL-12T; first compound 8 µM): 0.376
relative viability (COR-L 105; first compound 0.08 µM): 0.688
relative viability (COR-L 105; first compound 0.253 µM): 0.584
relative viability (COR-L 105; first compound 0.8 µM): 0.817
relative viability (COR-L 105; first compound 2.53 µM): 0.815
relative viability (COR-L 105; first compound 8 µM): 0.638
relative viability (ChaGo-K-1; first compound 0.08 µM): 0.524
relative viability (ChaGo-K-1; first compound 0.253 µM): 0.587
relative viability (ChaGo-K-1; first compound 0.8 µM): 0.598
relative viability (ChaGo-K-1; first compound 2.53 µM): 0.638
relative viability (ChaGo-K-1; first compound 8 µM): 0.478
relative viability (EMC-BAC-2; first compound 0.08 µM): 1.25
relative viability (EMC-BAC-2; first compound 0.253 µM): 1.24
relative viability (EMC-BAC-2; first compound 0.8 µM): 1.05
relative viability (EMC-BAC-2; first compound 2.53 µM): 0.876
relative viability (EMC-BAC-2; first compound 8 µM): 1.18
relative viability (EPLC-272H; first compound 0.08 µM): 0.302
relative viability (EPLC-272H; first compound 0.253 µM): 0.308
relative viability (EPLC-272H; first compound 0.8 µM): 0.297
relative viability (EPLC-272H; first compound 2.53 µM): 0.202
relative viability (EPLC-272H; first compound 8 µM): 0.159
relative viability (HCC-15; first compound 0.08 µM): 0.303
relative viability (HCC-15; first compound 0.253 µM): 0.271
relative viability (HCC-15; first compound 0.8 µM): 0.148
relative viability (HCC-15; first compound 2.53 µM): 0.345
relative viability (HCC-15; first compound 8 µM): 0.196
relative viability (HOP-62; first compound 0.08 µM): 0.858
relative viability (HOP-62; first compound 0.253 µM): 0.945
relative viability (HOP-62; first compound 0.8 µM): 0.902
relative viability (HOP-62; first compound 2.53 µM): 0.909
relative viability (HOP-62; first compound 8 µM): 0.801
relative viability (LXF-289; first compound 0.08 µM): 0.599
relative viability (LXF-289; first compound 0.253 µM): 0.66
relative viability (LXF-289; first compound 0.8 µM): 0.671
relative viability (LXF-289; first compound 2.53 µM): 0.641
relative viability (LXF-289; first compound 8 µM): 0.702
relative viability (NCI-H1666; first compound 0.08 µM): 0.961
relative viability (NCI-H1666; first compound 0.253 µM): 1.04
relative viability (NCI-H1666; first compound 0.8 µM): 1
relative viability (NCI-H1666; first compound 2.53 µM): 0.934
relative viability (NCI-H1666; first compound 8 µM): 0.827
relative viability (NCI-H1755; first compound 0.08 µM): 0.384
relative viability (NCI-H1755; first compound 0.253 µM): 0.489
relative viability (NCI-H1755; first compound 0.8 µM): 0.465
relative viability (NCI-H1755; first compound 2.53 µM): 0.467
relative viability (NCI-H1755; first compound 8 µM): 0.416
relative viability (NCI-H1915; first compound 0.08 µM): 0.694
relative viability (NCI-H1915; first compound 0.253 µM): 0.768
relative viability (NCI-H1915; first compound 0.8 µM): 0.798
relative viability (NCI-H1915; first compound 2.53 µM): 0.717
relative viability (NCI-H1915; first compound 8 µM): 0.677
relative viability (NCI-H1975; first compound 0.08 µM): 0.161
relative viability (NCI-H1975; first compound 0.253 µM): 0.195
relative viability (NCI-H1975; first compound 0.8 µM): 0.122
relative viability (NCI-H1975; first compound 2.53 µM): 0.13
relative viability (NCI-H1975; first compound 8 µM): 0.252
relative viability (NCI-H1993; first compound 0.08 µM): 0.988
relative viability (NCI-H1993; first compound 0.253 µM): 0.806
relative viability (NCI-H1993; first compound 0.8 µM): 0.787
relative viability (NCI-H1993; first compound 2.53 µM): 0.875
relative viability (NCI-H1993; first compound 8 µM): 0.83
relative viability (NCI-H2023; first compound 0.08 µM): 0.746
relative viability (NCI-H2023; first compound 0.253 µM): 0.921
relative viability (NCI-H2023; first compound 0.8 µM): 0.706
relative viability (NCI-H2023; first compound 8 µM): 0.696
relative viability (NCI-H2085; first compound 0.08 µM): 0.427
relative viability (NCI-H2085; first compound 0.253 µM): 0.416
relative viability (NCI-H2085; first compound 0.8 µM): 0.38
relative viability (NCI-H2085; first compound 2.53 µM): 0.366
relative viability (NCI-H2085; first compound 8 µM): 0.417
relative viability (NCI-H2126; first compound 0.08 µM): 0.931
relative viability (NCI-H2126; first compound 0.253 µM): 0.977
relative viability (NCI-H2126; first compound 0.8 µM): 0.804
relative viability (NCI-H2126; first compound 2.53 µM): 0.815
relative viability (NCI-H2126; first compound 8 µM): 0.872
relative viability (NCI-H3122; first compound 0.08 µM): 0.0952
relative viability (NCI-H3122; first compound 0.253 µM): 0.128
relative viability (NCI-H3122; first compound 0.8 µM): 0.0733
relative viability (NCI-H3122; first compound 2.53 µM): 0.0938
relative viability (NCI-H3122; first compound 8 µM): 0.131
relative viability (NCI-H322M; first compound 0.08 µM): 0.928
relative viability (NCI-H322M; first compound 0.253 µM): 1.24
relative viability (NCI-H322M; first compound 0.8 µM): 0.816
relative viability (NCI-H322M; first compound 2.53 µM): 0.879
relative viability (NCI-H322M; first compound 8 µM): 0.829
relative viability (NCI-H358; first compound 0.08 µM): 0.338
relative viability (NCI-H358; first compound 0.253 µM): 0.247
relative viability (NCI-H358; first compound 0.8 µM): 0.314
relative viability (NCI-H358; first compound 2.53 µM): 0.355
relative viability (NCI-H358; first compound 8 µM): 0.224
relative viability (NCI-H441; first compound 0.08 µM): 0.329
relative viability (NCI-H441; first compound 0.253 µM): 0.453
relative viability (NCI-H441; first compound 0.8 µM): 0.295
relative viability (NCI-H441; first compound 2.53 µM): 0.518
relative viability (NCI-H441; first compound 8 µM): 0.305
relative viability (UMC-11; first compound 0.08 µM): 0.992
relative viability (UMC-11; first compound 0.253 µM): 1.01
relative viability (UMC-11; first compound 0.8 µM): 1.03
relative viability (UMC-11; first compound 2.53 µM): 0.712
relative viability (UMC-11; first compound 8 µM): 0.742
